Reference: ChEMBL document CHEMBL3045795, “Peroxidizing Phytotoxic Activity of 1, 3, 4-Thiadiazolidine-2-thiones and 1, 2, 4-Triazolidine-3, 5-dithiones” (J Pestic Sci, 1995)

Key:
[1] = biological target: T1, Protoporphyrinogen IX oxidase (UniProt C1N1S5); test: Inhibition of Protoporphyrinogen IX oxidase in Scenedesmus acutus assessed as protoporphyrin IX level per ml of packed cell volume by HPLC; further: test concentration or dose not given here
T1 sequence (whole entry): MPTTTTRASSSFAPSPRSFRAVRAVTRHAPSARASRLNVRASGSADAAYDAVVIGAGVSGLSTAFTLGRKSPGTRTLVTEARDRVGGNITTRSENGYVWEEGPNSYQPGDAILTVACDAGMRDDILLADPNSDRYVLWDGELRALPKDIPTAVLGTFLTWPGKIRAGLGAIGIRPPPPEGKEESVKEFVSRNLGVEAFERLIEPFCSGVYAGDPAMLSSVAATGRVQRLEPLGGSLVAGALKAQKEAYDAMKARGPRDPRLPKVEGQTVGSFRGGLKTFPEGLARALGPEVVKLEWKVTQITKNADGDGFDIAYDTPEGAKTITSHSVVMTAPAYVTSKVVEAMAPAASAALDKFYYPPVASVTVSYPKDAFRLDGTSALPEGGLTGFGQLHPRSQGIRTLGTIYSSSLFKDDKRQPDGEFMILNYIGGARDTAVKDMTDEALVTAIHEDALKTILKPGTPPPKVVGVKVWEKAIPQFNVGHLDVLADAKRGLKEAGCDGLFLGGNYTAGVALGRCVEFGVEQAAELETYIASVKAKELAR

[2] = biological target: T2, Protoporphyrinogen IX oxidase (Zea mays, UniProt Q9FYV8); test: Inhibition of Protoporphyrinogen IX oxidase in Zea mays cv. Anjou (maize) seedlings etioplasts homogenates assessed as reduction in protoporphyrin IX production by fluorescence spectroscopy; details: read-out: pI50 (converted)
T2 sequence (Q9FYV8 whole entry): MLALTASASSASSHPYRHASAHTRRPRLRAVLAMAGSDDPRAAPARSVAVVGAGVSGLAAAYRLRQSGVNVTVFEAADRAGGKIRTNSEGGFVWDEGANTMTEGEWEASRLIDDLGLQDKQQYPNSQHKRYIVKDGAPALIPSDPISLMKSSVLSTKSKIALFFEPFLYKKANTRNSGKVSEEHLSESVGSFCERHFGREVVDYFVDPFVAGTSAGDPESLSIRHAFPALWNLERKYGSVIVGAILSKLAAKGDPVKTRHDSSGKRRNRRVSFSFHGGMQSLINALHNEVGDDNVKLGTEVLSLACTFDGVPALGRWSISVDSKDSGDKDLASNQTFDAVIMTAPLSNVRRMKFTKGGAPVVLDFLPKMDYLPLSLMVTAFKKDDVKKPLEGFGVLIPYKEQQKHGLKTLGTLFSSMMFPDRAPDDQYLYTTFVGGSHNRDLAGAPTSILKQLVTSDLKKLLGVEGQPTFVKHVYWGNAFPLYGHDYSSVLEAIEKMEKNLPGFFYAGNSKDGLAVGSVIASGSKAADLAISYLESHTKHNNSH

Scenedesmus acutus [3] = test: Growth inhibition of Scenedesmus acutus assessed as reduction in packed cell volume; assay type: functional, organism-based; details: read-out: pI50 (converted)
Scenedesmus acutus [4] = test: Peroxidizing phytotoxicity against Scenedesmus acutus assessed as ethane production after 20 hr by gas chromatography; assay type: functional, organism-based; details: read-out: pI50 (converted)
Scenedesmus acutus [5] = test: Phytotoxicity against Scenedesmus acutus assessed as reduction in chlorophyll content by spectrophotometry; assay type: functional, organism-based; details: read-out: pI50 (converted)

| SMILES | Activity [1] [nmol] | IC50 [2] [nM] | IC50 (Scenedesmus acutus [3]) [nM] | IC50 (Scenedesmus acutus [4]) [nM] | IC50 (Scenedesmus acutus [5]) [nM] |
| --- | --- | --- | --- | --- | --- |
| C#CCOc1cc(-n2c(=S)n3n(c2=S)CCCC3)c(F)cc1Cl | 87.2 | 8.91 | 2.04 | 7.24 | 1.7 |
| Fc1cc(Cl)ccc1-n1c(=S)n2n(c1=S)CCCC2 | 70.3 | 7.24 | 23.4 | 27.5 | 18.2 |
| CC(C)Oc1cc(-n2c(=S)n3n(c2=S)CCCC3)c(F)cc1Cl | 60.2 | 1.2 | 7.59 | 67.6 | 5.25 |
| S=c1n(-c2ccc(OCc3ccc(Cl)cc3)cc2)c(=S)n2n1CCCC2 | 80.3 | 12 | 17.4 | 22.9 | 15.5 |
| COC(=O)CSc1cc(/N=c2\sc(=S)n3n2CCCC3)c(F)cc1Cl | 34.1 | 120 | 245 | 389 | 191 |
| C#CCOc1cc(/N=c2\sc(=S)n3n2CCCC3)c(F)cc1Cl | 63.5 | 204 | 7.24 | 79.4 | 5.5 |
| S=c1n(-c2ccc(Br)cc2)c(=S)n2n1CCCC2 | 67.9 | 7.24 | 64.6 | 46.8 | 37.2 |
| CCOc1cc(Oc2ccc(C(F)(F)F)cc2Cl)ccc1[N+](=O)[O-] [OXYFLUORFEN] | 65.6 | 7.94 | 30.9 | 41.7 | 21.4 |
| Cc1cc(Cl)ccc1-n1c(=S)n2n(c1=S)CCCC2 | 63.3 | 151 | 105 | 85.1 | 85.1 |
| S=c1n(-c2ccc(Cl)cc2)c(=S)n2n1CCCC2 | 50.3 | 6.76 | 61.7 | 50.1 | 43.7 |
| COC(=O)CSc1cc(-n2c(=S)n3n(c2=S)CCCC3)c(F)cc1Cl | 56 | – | 186 | 158 | 141 |

The next lines start with results.

| Activity [1] [nmol] | IC50 [2] [nM] | SMILES | IC50 (Scenedesmus acutus [3]) [nM] | IC50 (Scenedesmus acutus [4]) [nM] | IC50 (Scenedesmus acutus [5]) [nM] |
| --- | --- | --- | --- | --- | --- |
| 25.3 | 741 | S=c1s/c(=N\c2ccc(Br)cc2)n2n1CCCC2 | 162 | 550 | 148 |
| 10.8 | > 31600 | S=c1s/c(=N\c2ccccc2)n2n1CCCC2 | 14100 | 4370 | 13800 |
| 20.3 | 7590 | Cc1cc(Cl)ccc1/N=c1\sc(=S)n2n1CCCC2 | 457 | 513 | 275 |
| 30.7 | 617 | CC(C)Oc1cc(/N=c2\sc(=S)n3n2CCCC3)c(F)cc1Cl | 13.8 | 166 | 11.2 |
| 20.3 | 1100 | S=c1s/c(=N\c2ccc(Cl)cc2)n2n1CCCC2 | 339 | 550 | 234 |
| 30.7 | 813 | S=c1s/c(=N\c2ccc(OCc3ccc(Cl)cc3)cc2)n2n1CCCC2 | 21.9 | 120 | 20 |
| 31.5 | 1100 | Fc1cc(Cl)ccc1/N=c1\sc(=S)n2n1CCCC2 | 120 | 91.2 | 67.6 |
| 13.2 | 3240 | S=c1n(-c2ccccc2)c(=S)n2n1CCCC2 | 7940 | 2040 | 6310 |
